Measurements from patent US20250250257A1, “NOVEL CRYSTALLINE FORMS” (Assembly Biosciences, Inc., priority 2021, published 2025).
Converted amounts (≈) assume the structure as drawn. “Also recorded” adds a separate entry of the source. Values belong to the compound of their own block, whether it stands above or below them.

Tests used:
Assay type in all cases: physicochemical
[1] = Approximate solubility test of Compound I at room temperature / 50° C. in different solvents; conditions: thermodynamic from solid
Description: The specific steps are as follows: Charge about 5 mg of Compound I into a clean glass vial, […] visible particles (add up to 1.5 mL of solvent), record the amount of solvent at last for the calculation of solubility.

[2] = DVS (water sorption, hygroscopicity, form change post-DVS); conditions: for form change post-DVS (XRPD): after DVS (desorption and resorption); for hygroscopicity (from DVS): based on water sorption at 80% RH
[3] = Competitive slurry studies, solid form checked by XRPD (thermodynamic stability of forms)
Description: Competitive slurry studies with Type 1 and the material produced from manufacture (Type 1 and 8 mixture) were performed at 25 and 50° C. in THF, EtOH and EtOAc. The solid form was checked by XRPD on day 3 and day 7.

[4] = Approximate solubility of Compound I, Type 1 at RT in twenty solvents (stepwise solvent addition); conditions: for solubility: thermodynamic from solid, read-out: Approximate Solubility (mg/mL) at RT
Description: The solubility of Compound I, Type 1 (6036531-01-A) was estimated at RT in twenty different solvents. Approximately 2 mg solids were added into a 3-mL glass vial. Solvents in Table 39 were then added stepwise (50 μL per step) into the vials until the solids were dissolved or a total volume of 2 mL was reached.

solubility ([1]; organic solvent or mixture, ACN, 20-25° C., read-out: Solubility (mg/mL) 20-25° C.): < 3.3 mg/mL
solubility ([1]; organic solvent or mixture, ACN, 50° C., read-out: Solubility (mg/mL) 50° C.): < 3.3 mg/mL
solubility ([1]; organic solvent or mixture, Acetone, 20-25° C., read-out: Solubility (mg/mL) 20-25° C.): < 3.3 mg/mL
solubility ([1]; organic solvent or mixture, Acetone, 50° C., read-out: Solubility (mg/mL) 50° C.): 3.8 to 4 mg/mL (≈ 6.96 to 7.33 mM)
solubility ([1]; organic solvent or mixture, Acetone/H2O = 95/5(V/V), 20-25° C., read-out: Solubility (mg/mL) 20-25° C.): 5 to 5.1 mg/mL (≈ 9.16 to 9.34 mM)
solubility ([1]; organic solvent or mixture, Acetone/H2O = 95/5(V/V), 50° C., read-out: Solubility (mg/mL) 50° C.): 6.5 to 6.7 mg/mL (≈ 11.9 to 12.3 mM)
solubility ([1]; organic solvent or mixture, DCM, 20-25° C., read-out: Solubility (mg/mL) 20-25° C.): < 3.3 mg/mL
solubility ([1]; organic solvent or mixture, DCM, 50° C., read-out: Solubility (mg/mL) 50° C.): < 3.3 mg/mL
solubility ([1]; organic solvent or mixture, DMSO, 20-25° C., read-out: Solubility (mg/mL) 20-25° C.): 167 to 200 mg/mL (≈ 306 to 366 mM)
solubility ([1]; organic solvent or mixture, DMSO, 50° C., read-out: Solubility (mg/mL) 50° C.): 250 to 333 mg/mL (≈ 458 to 610 mM)
solubility ([1]; organic solvent or mixture, EA, 20-25° C., read-out: Solubility (mg/mL) 20-25° C.): < 3.3 mg/mL
solubility ([1]; organic solvent or mixture, EA, 50° C., read-out: Solubility (mg/mL) 50° C.): < 3.3 mg/mL
solubility ([1]; organic solvent or mixture, EtOH, 20-25° C., read-out: Solubility (mg/mL) 20-25° C.): 8 to 8.3 mg/mL (≈ 14.7 to 15.2 mM)
solubility ([1]; organic solvent or mixture, EtOH, 50° C., read-out: Solubility (mg/mL) 50° C.): 20 to 20.4 mg/mL (≈ 36.6 to 37.4 mM)
solubility ([1]; organic solvent or mixture, EtOH/H2O = 95/5(V/V), 20-25° C., read-out: Solubility (mg/mL) 20-25° C.): 22.2 to 23.2 mg/mL (≈ 40.7 to 42.5 mM)
solubility ([1]; organic solvent or mixture, EtOH/H2O = 95/5(V/V), 50° C., read-out: Solubility (mg/mL) 50° C.): 45.4 to 47.6 mg/mL (≈ 83.1 to 87.2 mM)
solubility ([1]; organic solvent or mixture, Heptane, 20-25° C., read-out: Solubility (mg/mL) 20-25° C.): < 3.3 mg/mL
solubility ([1]; organic solvent or mixture, Heptane, 50° C., read-out: Solubility (mg/mL) 50° C.): < 3.3 mg/mL
solubility ([1]; organic solvent or mixture, IPA, 20-25° C., read-out: Solubility (mg/mL) 20-25° C.): < 3.3 mg/mL
solubility ([1]; organic solvent or mixture, IPA, 50° C., read-out: Solubility (mg/mL) 50° C.): 5 to 5.1 mg/mL (≈ 9.16 to 9.34 mM)
solubility ([1]; organic solvent or mixture, IPA/H2O = 95/5(V/V), 20-25° C., read-out: Solubility (mg/mL) 20-25° C.): < 3.3 mg/mL
solubility ([1]; organic solvent or mixture, IPA/H2O = 95/5(V/V), 50° C., read-out: Solubility (mg/mL) 50° C.): 8 to 8.1 mg/mL (≈ 14.7 to 14.8 mM)
solubility ([1]; organic solvent or mixture, IPAc, 20-25° C., read-out: Solubility (mg/mL) 20-25° C.): < 3.3 mg/mL
solubility ([1]; organic solvent or mixture, IPAc, 50° C., read-out: Solubility (mg/mL) 50° C.): < 3.3 mg/mL
solubility ([1]; organic solvent or mixture, MTBE, 20-25° C., read-out: Solubility (mg/mL) 20-25° C.): < 3.3 mg/mL
solubility ([1]; organic solvent or mixture, MTBE, 50° C., read-out: Solubility (mg/mL) 50° C.): < 3.3 mg/mL
solubility ([1]; organic solvent or mixture, MeOH, 20-25° C., read-out: Solubility (mg/mL) 20-25° C.): 32.2 to 33.3 mg/mL (≈ 59 to 61 mM)
solubility ([1]; organic solvent or mixture, MeOH, 50° C., read-out: Solubility (mg/mL) 50° C.): 74.1 to 76.9 mg/mL (≈ 136 to 141 mM)
solubility ([1]; organic solvent or mixture, THF, 20-25° C., read-out: Solubility (mg/mL) 20-25° C.): 12.5 to 12.6 mg/mL (≈ 22.9 to 23.1 mM)
solubility ([1]; organic solvent or mixture, THF, 50° C., read-out: Solubility (mg/mL) 50° C.): 18.1 to 18.5 mg/mL (≈ 33.1 to 33.9 mM)
solubility ([1]; organic solvent or mixture, Toluene, 20-25° C., read-out: Solubility (mg/mL) 20-25° C.): < 3.3 mg/mL
solubility ([1]; organic solvent or mixture, Toluene, 50° C., read-out: Solubility (mg/mL) 50° C.): < 3.3 mg/mL
solubility ([1]; water, H2O, 20-25° C., read-out: Solubility (mg/mL) 20-25° C.): < 3.3 mg/mL
solubility ([1]; water, H2O, 50° C., read-out: Solubility (mg/mL) 50° C.): < 3.3 mg/mL
SMILES: Cn1cnc(C2CC3CC(O)(c4cc(OCC(C)(C)O)nn4C)CC3C2)c1C(=O)Nc1ccc(F)c(Cl)c1 (stereo not shown) [Compound I, N-(3-Chloro-4-fluorophenyl)-4-(5-hydroxy-5-(3-(2-hydroxy-2-methylpropoxy)-1-methyl-1H-pyrazol-5-yl)octahydropentalen-2-yl)-1-methyl-1H-imidazole-5-carboxamide]

water update at 80% RH (DVS) ([2]; 80% RH): 0.1%
form change post-DVS (XRPD) [2]: No change in crystalline form
hygroscopicity (from DVS) [2]: non-hygroscopic
relative thermodynamic stability of the form ([3]; at 25 and 50° C., versus Type 1): the more thermodynamically stable form
SMILES: Cn1cnc([C@@H]2C[C@@H]3C[C@@](O)(c4cc(OCC(C)(C)O)nn4C)C[C@@H]3C2)c1C(=O)Nc1ccc(F)c(Cl)c1 [Type 8, N-(3-chloro-4-fluorophenyl)-4-((2s,3aR,5r,6aS)-5-hydroxy-5-(3-(2-hydroxy-2-methylpropoxy)-1-methyl-1H-pyrazol-5-yl)octahydropentalen-2-yl)-1-methyl-1H-imidazole-5-carboxamide]
thermodynamic stability among all forms discovered [3]: the most thermodynamically stable form discovered to date

RH range in which the form is stable (DVS) [2]: 30-95 % RH
water content at 80% RH by DVS ([2]; 80% RH): 9.2%
SMILES: Cn1cnc([C@@H]2C[C@@H]3C[C@@](O)(c4cc(OCC(C)(C)O)nn4C)C[C@@H]3C2)c1C(=O)Nc1ccc(F)c(Cl)c1 [Type 2, N-(3-chloro-4-fluorophenyl)-4-((2s,3aR,5r,6aS)-5-hydroxy-5-(3-(2-hydroxy-2-methylpropoxy)-1-methyl-1H-pyrazol-5-yl)octahydropentalen-2-yl)-1-methyl-1H-imidazole-5-carboxamide]
form change post-DVS (XRPD) [2]: Form change was observed post-DVS to a lower order hydrate; also recorded: converted to Type 3

Characterization (of approximate solubility) ([4]; 1-Butanol): Moderate
Characterization (of approximate solubility) ([4]; 2-MeTHF): Moderate
Characterization (of approximate solubility) ([4]; Acetone): Moderate
Characterization (of approximate solubility) ([4]; Acetonitrile): Poor
Characterization (of approximate solubility) ([4]; CPME): Poor
Characterization (of approximate solubility) ([4]; DCM): Poor
Characterization (of approximate solubility) ([4]; DMF): High
Characterization (of approximate solubility) ([4]; DMSO): High
Characterization (of approximate solubility) ([4]; EtOH): High
Characterization (of approximate solubility) ([4]; H2O): Poor
Characterization (of approximate solubility) ([4]; IPA): Moderate
Characterization (of approximate solubility) ([4]; IPAc): Poor
Characterization (of approximate solubility) ([4]; MEK): Moderate
Characterization (of approximate solubility) ([4]; MIBK): Poor
Characterization (of approximate solubility) ([4]; MTBE): Poor
Characterization (of approximate solubility) ([4]; MeOH): High
Characterization (of approximate solubility) ([4]; THF): High
Characterization (of approximate solubility) ([4]; Toluene): Poor
Characterization (of approximate solubility) ([4]; n-Heptane): Poor
Characterization (of approximate solubility) ([4]; n-Propanol): Moderate
solubility ([4]; organic solvent or mixture, 1-Butanol): 2.4 to 8 mg/mL (≈ 4.4 to 14.7 mM)
solubility ([4]; organic solvent or mixture, 2-MeTHF): 2.2 to 7.3 mg/mL (≈ 4.03 to 13.4 mM)
solubility ([4]; organic solvent or mixture, Acetone): 2.3 to 7.7 mg/mL (≈ 4.21 to 14.1 mM)
solubility ([4]; organic solvent or mixture, Acetonitrile): < 2 mg/mL
solubility ([4]; organic solvent or mixture, CPME): < 2.2 mg/mL
solubility ([4]; organic solvent or mixture, DCM): < 2.4 mg/mL
solubility ([4]; organic solvent or mixture, DMF): > 48 mg/mL
solubility ([4]; organic solvent or mixture, DMSO): > 48 mg/mL
solubility ([4]; organic solvent or mixture, EtOH): 20 to 40 mg/mL (≈ 36.6 to 73.3 mM)
solubility ([4]; organic solvent or mixture, IPA): 2.2 to 7.3 mg/mL (≈ 4.03 to 13.4 mM)
solubility ([4]; organic solvent or mixture, IPAc): < 2.1 mg/mL
solubility ([4]; organic solvent or mixture, MEK): 2.2 to 7.3 mg/mL (≈ 4.03 to 13.4 mM)
solubility ([4]; organic solvent or mixture, MIBK): < 2.2 mg/mL
solubility ([4]; organic solvent or mixture, MTBE): < 2 mg/mL
solubility ([4]; organic solvent or mixture, MeOH): > 42 mg/mL
solubility ([4]; organic solvent or mixture, THF): 21 to 42 mg/mL (≈ 38.5 to 76.9 mM)
solubility ([4]; organic solvent or mixture, Toluene): < 2.5 mg/mL
solubility ([4]; organic solvent or mixture, n-Heptane): < 2.3 mg/mL
solubility ([4]; organic solvent or mixture, n-Propanol): 2.2 to 7.3 mg/mL (≈ 4.03 to 13.4 mM)
solubility ([4]; water, H2O): < 2.5 mg/mL
water content at 80% RH by DVS ([2]; 80% RH): 0.67%
form change post-DVS (XRPD) [2]: no form change
hygroscopicity (from DVS) [2]: slightly hygroscopic
SMILES: Cn1cnc([C@@H]2C[C@@H]3C[C@@](O)(c4cc(OCC(C)(C)O)nn4C)C[C@@H]3C2)c1C(=O)Nc1ccc(F)c(Cl)c1 [Type 1, N-(3-chloro-4-fluorophenyl)-4-((2s,3aR,5r,6aS)-5-hydroxy-5-(3-(2-hydroxy-2-methylpropoxy)-1-methyl-1H-pyrazol-5-yl)octahydropentalen-2-yl)-1-methyl-1H-imidazole-5-carboxamide]
